Measurements taken from ChEMBL document CHEMBL1201862, “PubChem BioAssay data set” (2004).
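Growth conditions: 96-well plates. Treatment: test compound, 48 hours, 5 concentrations. Analysis: linear interpolation between bracketing concentrations; unreached endpoints set to highest concentration. GI50 is the concentration that inhibits growth by half.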 Calls of active or inactive are those of the source. Rule as the data show it: active = GI50 up to about 1.1 µM and inactive = higher.

Experiments:
Test in all cases: growth of human tumour cells (NCI), 48 h
NCI-H226 = system: NCI-H226
PC-3 = system: PC-3
MCF7 = system: MCF7
U-251 = system: U-251
COLO 205 = system: COLO 205
OVCAR-5 = system: OVCAR-5
UO-31 = system: UO-31
SN12C = system: SN12C
MDA-MB-231 = system: MDA-MB-231
SK-OV-3 = system: SK-OV-3
RPMI-8226 = system: RPMI-8226
Hs-578T = system: Hs-578T
KM12 = system: KM12
SNB-75 = system: SNB-75
SNB-78 = system: SNB-78
DMS-114 = system: DMS-114
SK-MEL-2 = system: SK-MEL-2
XF498 = system: XF498
DMS-273 = system: DMS-273
DLD-1 = system: DLD-1

Measured: GI50

C/C=C(/C)C(=O)O[C@@H]1c2c(C)coc2C[C@H]2CC[C@H](O)[C@H](C)[C@]21C
inactive: NCI-H226 52.1 µM | PC-3 97.7 µM | MCF7 26.3 µM | U-251 > 100 µM | COLO 205 > 100 µM | OVCAR-5 > 100 µM | UO-31 68.2 µM | SN12C 31.3 µM | MDA-MB-231 71.6 µM | SK-OV-3 > 100 µM | RPMI-8226 31.3 µM | Hs-578T 64.7 µM | KM12 46.2 µM

c1ccc(COc2ccc(CC3SCCCS3)cc2)cc1
inactive: PC-3 > 100 µM | MCF7 > 100 µM | COLO 205 > 100 µM | MDA-MB-231 74.1 µM | RPMI-8226 50.2 µM

NC(CO)c1ccccc1 (stereo unspecified)
inactive: NCI-H226 > 100 µM | SNB-75 > 100 µM | SNB-78 > 100 µM | DMS-114 > 100 µM | U-251 > 100 µM | SK-MEL-2 > 100 µM | OVCAR-5 > 100 µM | UO-31 > 100 µM | SK-OV-3 > 100 µM | XF498 > 100 µM | DMS-273 > 100 µM | DLD-1 > 100 µM | KM12 > 100 µM
